Assay results: US10654808B2, “Tyrosine kinase inhibitor and pharmaceutical composition comprising same” (GUANGDONG RAYNOVENT BIOTECH CO., LTD., priority 2015, dated 2020)

How the values were obtained:
[1] = target: T1, VEGFR2 (Homo sapiens, UniProt P35968); assay: Z'-LYTE in vitro enzyme activity assay, VEGFR2; type: biochemical; conditions: 100 μM ATP, 60 minutes, room temperature; read-out: IC50 detected by Z'-LYTE, VEGFR2
T1 construct: purchased Life technology
Outline: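 Reaction with 3 nM VEGFR2, 2 μM Tyr1 peptide and 100 μM ATP in HEPES pH 7.5/MgCl2/EGTA/BRIJ-35, 1% DMSO, 60 min at room temperature; development reagent then 60 min at 23° C. Compounds tested at 11 threefold dilutions, 10 μM–0.17 nM final, in duplicate; IC50 from 4-parameter fit of inhibition.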

[2] = target: T2, FGFR1 (Homo sapiens, UniProt P11362); assay: Z'-LYTE in vitro enzyme activity assay, FGFR1; type: biochemical; conditions: 25 μM ATP, 60 minutes, room temperature; read-out: IC50 detected by Z'-LYTE, FGFR1
T2 construct: purchased Life technology
Outline: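 Z′-LYTE FRET assay with 1 nM FGFR1, 2 μM Tyr4 peptide and 25 μM ATP in HEPES pH 7.5 with Mg/Mn, 60 min at room temperature, then development 60 min at 23 °C. Compounds tested at 11 concentrations from 10 μM to 0.17 nM in 1% DMSO. IC50 from 4-parameter fit of inhibition.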

[3] = target: T3, PDGFRB (Homo sapiens, UniProt P09619); assay: Z'-LYTE in vitro enzyme activity assay, PDGFRB; type: biochemical; conditions: 100 μM ATP, 60 minutes, room temperature; read-out: IC50 detected by Z'-LYTE, PDGFRB
T3 construct: purchased Millipore
Outline: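 Z′-LYTE FRET kinase assay using 40 nM PDGFRB, 2 μM Tyr4 peptide and 100 μM ATP in HEPES pH 7.5 with Mg2+/Mn2+ and 1% DMSO. The reaction ran 60 min at room temperature, followed by development for 60 min at 23 °C. IC50 values came from 4-parameter fits over 11 concentrations (10 μM–0.17 nM).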

[4] = system: HUVEC; assay: CellTiter-Glo luminescent cell viability assay, HUVEC stimulated with hVEGF-165; type: cell-based; conditions: Homo sapiens, hVEGF-165 20 ng/ml, 72 hours, read-out: IC50 detected by CellTiter-Glo, HUVEC
Description: The intracellular ATP changes were measured by CellTiter-Glo® Luminescent Cell Viability Assay. The IC50 value of the compounds was used as an index to evaluate the inhibitory effect of the compounds on HUVEC in vitro.
HUVEC cell line (ATCC), EGM-2 BulletKit (Lonza), hVEGF-165 (Cell Signaling), trypsin (Invitrogen), DPBS (Hyclone), 384 cell plate (Greiner), 384 compound plate (Greiner), CO2 incubator (Thermo), centrifuge (Eppendorf), Vi-cell cell counter (Beckman Coulter), Bravo Automatic Liquid Workstation (Agilent), Envision (Perkin Elmer)
B: Cell plating: HUVEC cells were resuspended with starved medium (only containing 2% FBS and 0.1% GA-1000) and diluted to a concentration of 20,000/mL. The diluted cells were added to a 384 plate (Greiner), 50 μl per well. The cell plates were placed in a 37° C., 5% CO2 incubator overnight.
C: Drug addition: the test compounds were diluted 4 times to obtain a total of 10 doses at a final concentration of 10 uM to 0.038 nM, two parallel wells. The middle plate was added with 47.6 uL of starved medium per well. 2.4 μl of compounds was transferred from a gradient dilution compound plate to a middle plate and mixed well. 5 μl of liquid was transferred from the middle plate to a cell plate. Incubate for 1 hour at 37° C. in a 5% CO2 incubator, 5 μl of starved medium containing hVEGF-165 (the final concentration was 20 ng/ml) and Heparin (the final concentration was 1 ng/m) were added and incubated at 37° C. in a 5% CO2 incubator for 72 hours.
D: After 72 hours, 30 μl of assay reagents was added and incubated at room temperature for 10-30 minutes, Envision was used to read the plate.
The reading was converted into suppression rate (%) (Max−Sample)/(Max−Min)*100%. Parameter curve fitting (Model 205 in XLFIT5, iDBS) was used to measure to obtain IC50 data.

T3 sequence (P09619 33-1106): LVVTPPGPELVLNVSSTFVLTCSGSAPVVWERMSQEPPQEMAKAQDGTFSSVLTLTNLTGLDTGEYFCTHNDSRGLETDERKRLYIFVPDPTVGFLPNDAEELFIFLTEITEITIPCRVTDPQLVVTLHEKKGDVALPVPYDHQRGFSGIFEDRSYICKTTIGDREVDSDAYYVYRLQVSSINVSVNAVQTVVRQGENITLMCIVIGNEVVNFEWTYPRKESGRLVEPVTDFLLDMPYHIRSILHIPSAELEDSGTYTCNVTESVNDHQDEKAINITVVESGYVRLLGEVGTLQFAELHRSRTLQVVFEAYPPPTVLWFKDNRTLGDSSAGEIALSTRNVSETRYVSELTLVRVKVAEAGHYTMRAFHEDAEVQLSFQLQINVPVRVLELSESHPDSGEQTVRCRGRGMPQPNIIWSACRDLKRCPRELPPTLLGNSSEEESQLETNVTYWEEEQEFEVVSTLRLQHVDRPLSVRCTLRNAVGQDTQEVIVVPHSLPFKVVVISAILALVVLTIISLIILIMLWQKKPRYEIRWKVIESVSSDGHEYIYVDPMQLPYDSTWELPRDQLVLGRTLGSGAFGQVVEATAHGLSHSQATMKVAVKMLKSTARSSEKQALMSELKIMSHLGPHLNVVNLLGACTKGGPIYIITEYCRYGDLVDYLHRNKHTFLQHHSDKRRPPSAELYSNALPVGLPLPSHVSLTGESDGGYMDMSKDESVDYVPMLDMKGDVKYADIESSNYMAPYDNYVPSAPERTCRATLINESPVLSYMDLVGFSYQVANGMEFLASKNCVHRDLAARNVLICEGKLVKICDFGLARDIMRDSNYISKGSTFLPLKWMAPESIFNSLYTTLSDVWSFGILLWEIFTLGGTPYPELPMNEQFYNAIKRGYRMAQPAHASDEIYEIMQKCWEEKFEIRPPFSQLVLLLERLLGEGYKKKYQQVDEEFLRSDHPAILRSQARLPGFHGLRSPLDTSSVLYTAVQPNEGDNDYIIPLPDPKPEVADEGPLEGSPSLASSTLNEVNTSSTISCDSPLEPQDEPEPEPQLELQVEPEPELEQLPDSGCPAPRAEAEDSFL
T2 sequence (P11362 22-822): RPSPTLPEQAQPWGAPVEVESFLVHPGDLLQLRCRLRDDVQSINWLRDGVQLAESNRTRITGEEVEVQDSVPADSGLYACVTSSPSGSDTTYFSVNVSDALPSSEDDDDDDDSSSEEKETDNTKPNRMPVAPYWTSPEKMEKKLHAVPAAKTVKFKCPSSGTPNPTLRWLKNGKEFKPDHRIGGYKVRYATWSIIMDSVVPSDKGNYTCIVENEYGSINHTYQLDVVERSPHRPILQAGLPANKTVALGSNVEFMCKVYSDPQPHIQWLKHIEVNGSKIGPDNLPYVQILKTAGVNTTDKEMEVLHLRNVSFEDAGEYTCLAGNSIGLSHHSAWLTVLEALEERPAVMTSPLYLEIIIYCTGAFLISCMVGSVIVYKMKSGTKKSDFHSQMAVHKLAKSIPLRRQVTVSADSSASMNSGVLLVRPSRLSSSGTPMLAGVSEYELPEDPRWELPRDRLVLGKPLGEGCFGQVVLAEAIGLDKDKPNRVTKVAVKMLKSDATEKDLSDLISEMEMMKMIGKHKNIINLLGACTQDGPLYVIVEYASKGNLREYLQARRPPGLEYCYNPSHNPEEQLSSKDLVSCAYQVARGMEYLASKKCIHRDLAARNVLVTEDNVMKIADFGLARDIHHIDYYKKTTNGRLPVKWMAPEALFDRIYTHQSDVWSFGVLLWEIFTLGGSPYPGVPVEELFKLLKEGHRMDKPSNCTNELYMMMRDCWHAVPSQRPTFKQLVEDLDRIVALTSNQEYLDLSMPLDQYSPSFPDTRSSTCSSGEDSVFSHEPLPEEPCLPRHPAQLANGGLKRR
T1 sequence (P35968 20-1356): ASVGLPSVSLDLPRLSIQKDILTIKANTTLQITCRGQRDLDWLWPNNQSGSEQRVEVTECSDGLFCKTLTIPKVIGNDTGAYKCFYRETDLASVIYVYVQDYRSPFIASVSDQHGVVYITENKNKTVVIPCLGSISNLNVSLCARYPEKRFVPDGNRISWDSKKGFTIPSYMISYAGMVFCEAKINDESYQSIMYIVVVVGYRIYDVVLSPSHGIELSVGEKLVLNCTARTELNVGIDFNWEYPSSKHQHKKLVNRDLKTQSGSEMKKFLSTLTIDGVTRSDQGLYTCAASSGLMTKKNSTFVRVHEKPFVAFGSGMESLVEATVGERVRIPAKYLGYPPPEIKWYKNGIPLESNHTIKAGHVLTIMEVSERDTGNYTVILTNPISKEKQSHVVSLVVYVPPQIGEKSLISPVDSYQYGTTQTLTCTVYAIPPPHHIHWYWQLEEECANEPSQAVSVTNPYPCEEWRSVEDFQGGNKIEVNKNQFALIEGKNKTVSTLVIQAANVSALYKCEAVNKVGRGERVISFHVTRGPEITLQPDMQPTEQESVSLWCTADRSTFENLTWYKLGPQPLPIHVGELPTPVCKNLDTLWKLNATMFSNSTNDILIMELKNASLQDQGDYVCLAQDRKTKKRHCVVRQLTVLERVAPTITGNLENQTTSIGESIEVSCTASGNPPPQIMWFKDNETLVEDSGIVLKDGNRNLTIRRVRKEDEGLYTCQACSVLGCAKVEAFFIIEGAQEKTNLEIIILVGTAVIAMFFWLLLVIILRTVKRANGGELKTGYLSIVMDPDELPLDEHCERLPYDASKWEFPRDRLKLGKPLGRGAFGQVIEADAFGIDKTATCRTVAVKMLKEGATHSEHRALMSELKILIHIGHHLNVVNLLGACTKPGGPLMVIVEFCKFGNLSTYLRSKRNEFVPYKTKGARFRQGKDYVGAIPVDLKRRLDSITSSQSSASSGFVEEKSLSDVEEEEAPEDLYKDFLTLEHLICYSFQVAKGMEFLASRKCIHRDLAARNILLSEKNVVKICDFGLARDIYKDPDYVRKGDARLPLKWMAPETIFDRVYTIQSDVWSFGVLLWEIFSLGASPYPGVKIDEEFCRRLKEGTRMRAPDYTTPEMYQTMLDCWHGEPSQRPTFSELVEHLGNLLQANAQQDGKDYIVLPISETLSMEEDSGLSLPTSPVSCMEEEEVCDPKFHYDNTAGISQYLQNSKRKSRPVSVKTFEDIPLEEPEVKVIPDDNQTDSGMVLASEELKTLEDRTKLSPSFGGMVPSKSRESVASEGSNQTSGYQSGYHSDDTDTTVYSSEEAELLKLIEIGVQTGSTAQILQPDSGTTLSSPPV

Structure (SMILES)	IC50 [1] [nM]	IC50 [2] [nM]	IC50 [3] [nM]	IC50 [4] [nM]
COc1cc2nccc(Oc3ccc(NC(=S)N[C@H](C)CO)c(Cl)c3)c2cc1C(N)=O [Example 21]	< 50	200 to 1000	50 to 200	< 100
CCNC(=S)Nc1ccc(Oc2ccnc3cc(OC)c(C(N)=O)cc23)cc1Cl [Example 56]	< 50	50 to 200	< 50	< 100
COc1cc2nccc(Oc3ccc(NC(=S)Nc4ccccc4)c(Cl)c3)c2cc1C(N)=O [Example 2]	50 to 200	200 to 1000	50 to 200	< 100
[2H]C([2H])([2H])NC(=S)Nc1ccc(Oc2ccnc3cc(OC)c(C(N)=O)cc23)c(F)c1Cl [Example 112]	< 50	< 50	< 50	< 100
CCOCCCOc1cc2nccc(Oc3ccc(NC(=S)NC4CC4)c(Cl)c3)c2cc1C(N)=O [Example 58]	< 50	200 to 1000	50 to 200	100 to 1000
COc1cc2nccc(Oc3ccc(NC(=S)NC4CCC4)c(Cl)c3)c2cc1C(N)=O [Example 6]	< 50	200 to 1000	50 to 200	< 100
COc1cc2nccc(Oc3ccc4nc(NC5CC5)sc4c3)c2cc1C(N)=O [Example 131]	200 to 1000			100 to 1000
Cc1c(OC[C@H](C)O)cn2ncnc(Oc3ccc(NC(=O)NC4CC4)c(Cl)c3)c12 [Example 127]	< 50			< 100
COc1cc2nccc(Oc3ccc(Nc4c(NC5CC5)c(=O)c4=O)c(Cl)c3)c2cc1C(N)=O [Example 130]	200 to 1000			100 to 1000
CCN(CC)CCNC(=O)c1cc2c(Oc3ccc(NC(=S)NC4CC4)c(Cl)c3)ccnc2cc1OC [Example 39]	50 to 200	200 to 1000	50 to 200	
COc1cc2nccc(Oc3ccc(NC(=S)NC4CC(O)C4)c(Cl)c3)c2cc1C(N)=O (stereo not shown) [Example 27]	50 to 200	200 to 1000	50 to 200	
COc1cc2nccc(Oc3cc(Cl)c(NC(=S)NC4CC4)cc3F)c2cc1C(N)=O [Example 77]	< 50	200 to 1000	50 to 200	
COc1cc2nccc(Oc3ccc(NC(=S)NC4CC4)c(C(F)(F)F)c3)c2cc1C(N)=O [Example 41]	< 50	200 to 1000	200 to 1000	
COc1cc2ncc(Cl)c(Oc3ccc(NC(=S)N4CC(F)(F)C4)c(Cl)c3)c2cc1C(N)=O [Example 89]	200 to 1000	200 to 1000	200 to 1000	
COc1cc2nccc(Oc3ccc(Nc4c(NCCN(C)C)c(=O)c4=O)c(Cl)c3)c2cc1C(N)=O [Example 136]	200 to 1000	200 to 1000	200 to 1000	
COc1cc2nccc(Oc3ccc(Nc4c(NCc5cccnc5)c(=O)c4=O)c(Cl)c3)c2cc1C(N)=O [Example 149]	200 to 1000	200 to 1000	200 to 1000	
COc1cc2nccc(Oc3ccc(NC(=S)N4CC(F)(F)C4)cc3F)c2cc1C(N)=O [Example 101]	200 to 1000	200 to 1000	50 to 200	
O=C1NCOc2cc3nccc(Oc4ccc(NC(=S)NC5CC5)c(Cl)c4)c3cc21 [Example 45]	200 to 1000	200 to 1000	200 to 1000	
COc1cc2nccc(Oc3ccc(Nc4c(NCc5ccccc5)c(=O)c4=O)c(Cl)c3)c2cc1C(N)=O [Example 148]	200 to 1000	200 to 1000	< 50	
COc1cc2nccc(Oc3ccc(NC(=S)N4CC(O)C4)c(Cl)c3)c2cc1C(N)=O [Example 69]	50 to 200	200 to 1000	50 to 200	
COc1cc2nccc(Oc3ccc4nc(NCc5cccc(C(F)(F)F)c5)sc4c3)c2cc1C(N)=O [Example 161]	200 to 1000	200 to 1000	200 to 1000	
COc1cc2nccc(Oc3ccc(N4CC(=O)NC4=S)c(Cl)c3)c2cc1C(N)=O [Example 167]	< 50	200 to 1000	< 50	
COc1cc2nccc(Oc3ccc(NC(=O)NC(C)(C)C(F)(F)F)c(Cl)c3)c2cc1C(N)=O [Example 33]	200 to 1000	200 to 1000	50 to 200	
COc1cc2nccc(Oc3ccc4c(c3)CN(CC(F)F)C(=O)N4)c2cc1C(N)=O [Example 164]	200 to 1000	200 to 1000	200 to 1000	

More lines, main results first:

IC50 [1] [nM]	IC50 [2] [nM]	IC50 [3] [nM]	Structure (SMILES)	IC50 [4] [nM]
< 50	< 50	50 to 200	CCNC(=O)c1coc2cc(Oc3ccnc4cc(-c5cn(C)cn5)ccc34)ccc12 [Example 222]	< 100
200 to 1000	200 to 1000	200 to 1000	COc1cc2nccc(Oc3ccc4oc(C(=O)NC5CC5)cc4c3)c2cc1C(N)=O [Example 191]	100 to 1000
< 50	200 to 1000	< 50	Cn1cnc(-c2ccc3c(Oc4ccc(NC(=S)NC5CC5)c(Cl)c4)ccnc3c2)c1 [Example 212]	100 to 1000
< 50	< 50	< 50	[2H]C([2H])([2H])NC(=O)c1coc2cc(Oc3ccnc4cc(-c5cn(C)cn5)ccc34)ccc12 [Example 224]	< 100
200 to 1000	200 to 1000	200 to 1000	COc1cc2nccc(Oc3ccc4oc(C(=O)N5CC(F)(F)C5)cc4c3)c2cc1C(N)=O [Example 190]	100 to 1000
< 50	200 to 1000	< 50	COCCOc1cc2nccc(Oc3ccc(NC(=S)NC4CC4)c(Cl)c3)c2cc1C(N)=O [Example 174]	< 100
< 50	200 to 1000	< 50	CCNC(=O)c1coc2cc(Oc3ccnc4cc(OC)c(C(N)=O)cc34)ccc12 [Example 210]	< 100
< 50	50 to 200	< 50	Cn1cnc(-c2ccc3c(Oc4ccc(NC(=O)N5CC(F)(F)C5)c(Cl)c4F)ccnc3c2)c1 [Example 218]	100 to 1000
< 50	< 50	50 to 200	Cn1cnc(-c2ccc3c(Oc4ccc(NC(=O)N5CCCC5)c(Cl)c4F)ccnc3c2)c1 [Example 219]	< 100
< 50	50 to 200	200 to 1000	COc1cc2nccc(Oc3ccc4c(C(=O)NC5CC5)coc4c3)c2cc1C(N)=O [Example 185]	< 100
< 50	< 50	50 to 200	Cn1cnc(-c2ccc3c(Oc4ccc(NC(=O)NC5CC5)c(Cl)c4)ccnc3c2)c1 [Example 221]	< 100
< 50	< 50	50 to 200	CCNC(=O)Nc1ccc(Oc2ccnc3cc(-c4cn(C)cn4)ccc23)cc1Cl [Example 220]	< 100
< 50	50 to 200	50 to 200	Cn1cncc1-c1ccc2c(Oc3ccc(NC(=O)NC4CC4)c(Cl)c3F)ccnc2c1 [Example 215]	< 100
200 to 1000	200 to 1000	200 to 1000	CCC1NC(=O)c2cc3c(Oc4ccc(NC(=S)NC5CC5)c(Cl)c4)ccnc3cc2O1 (stereo not shown) [Example 173]	
200 to 1000	200 to 1000	200 to 1000	COc1cc2nccc(Oc3ccc4c(C(=O)N5CC[C@@H](O)C5)coc4c3)c2cc1C(N)=O [Example 201]	
